Bounds are passed on as bounds.

The values below come from US9938240B2, “Fluorinated derivatives of 3-hydroxypyridin-4-ones” (Apotex Technologies Inc., priority 2009, dated 2018).

The subject of data set [1] is SH-SY5Y human neuroblastoma cells. The note with it: for CC2 (cytotoxic concentration): H2O2-treated cells, viability below 80%; for CC1 (cytotoxic concentration): absence of H2O2, viability below 80%. The text has this: Hydrogen peroxide (H2O2) is a major ROS (reactive oxidative species), which causes oxidative stress, and can induce apoptosis in many different cell types. One of the CNS drug design strategies is to use compounds with antioxidant properties as a possible treatment of both acute and chronic neurodegenerative diseases (Kang et al. Bioorganic & Medicinal Chemistry Letters, 2004, 14, 2261-2264). This involves testing the compounds of this invention for their protective effect against oxidative stress-induced cell death in SH-SY5Y human neuroblastoma cells. SH-SY5Y human neuroblastoma cells were cultured in DMEM (ATCC)/F12 (Cellgro) with 10% FBS. The cells were plated at 30,000 cells/cm^2 and grown for 1 day in the regular culture media prior to compound addition. Cells were routinely treated with the test compound, at a pre-determined range of concentrations, in the presence or absence of 50 μM hydrogen peroxide in a basal medium containing no FBS for 16-22 h. Cell viability was then measured using the routine MTT method (Mosmann, T., Rapid Colorimetric Assay for Cellular Growth and Survival: Application to Proliferation and Cytotoxicity Assays”. J. Immunol. Meth. 1983, 65, 55-63).
For data analysis, cell viability relative to control not treated with either H2O2 or the test compound, was plotted against the compound concentration. […] Cytotoxicity of the test compound was assessed in the absence of hydrogen peroxide.

Data set [2] deals with human neuroblastoma MC-65 cells. The experiment in a line: cells. The note with it: for EC100 / minimal effective concentration: Homo sapiens, MC65, 48 h; for EC100: read-out: EC100 (maximum effective concentration); for minimal effective concentration: read-out: TH (threshold protective concentration); for CC2 (cytotoxic concentration): MC-65, cultured without tetracycline; for CC2 (cytotoxic concentration) / CC1 (cytotoxic concentration): viability below 80%; for CC1 (cytotoxic concentration): MC-65, presence of TET. The method, then:
In this assay, human neuroblastoma cells (MC-65 cells) are genetically engineered to conditionally express amyloid β peptide (Aβ). The Aβ production is suppressed by tetracycline (TET+) presence in culture medium, and its production is activated when TET is withdrawn (TET−). The activation of Aβ production results in cell death “MC-65 suicide”.
Protective effect of compounds against edogenously produced amyloid beta (Aβ) was assessed in human neuroblastoma MC-65 cells. MC-65 cells have been stably transformed to conditionally express high levels of a partial amyloid precursor (AP) fusion protein (Bryce Sopher et al., Brain Res Mol Brain Res. 1994, 207-17.). This protein is further proteolitically processed in the cells to form a set of AP-derived Aβ peptides. […] Activity of the promoter is tightly regulated by the presence of the antibiotic tetracycline (TET) in the culture medium. In the presence of TET (TET+), the promoter is in the basal state and no amyloid beta peptide is synthesized. In the absence of TET (TET−) the promoter is in induced state, resulting in the accumulation of Aβ peptides in the cells, degenerative changes in cell morphology and decreased survival.
Transfected human neuroblastoma cells (MC-65) were cultured in DMEM (ATCC) supplemented with non-essential amino acids and 10% FBS (VWR) in the presence of TET (1 μg/mL). For the experiment, the cells were plated at 35,000 cells/cm^2 and grown for 1 day in the regular culture media prior to compound addition. On the day of the assay, culture supernatant was removed from the wells and cells were thoroughly washed once with the compound incubation matrix containing no FBS and no TET. MC-65 cells were treated with a test compound at pre-determined range of concentrations in a basal medium containing no FBS and in the absence or presence of 1 μg/mL TET for approximately 48 h. Cell viability was then measured using the MTT method.
For data analysis, cell viabilities relative to the control not treated with a test compound and maintained in the presence of TET were plotted against the compound concentration. […] Cytotoxicity of the test compound was assessed in the cells maintained in the presence of TET.

Take `Cn1ccc(=O)c(O)c1C(C(F)F)N1CCN(c2ccccn2)CC1` (centres unmarked) [Apo7316, 2-(2,2-difluoro-1-(4-(pyridin-2-yl)piperazin-1-yl)ethyl)-3-hydroxy-1-methylpyridin-4(1H)-one]: in data set [1], the “CC2 (cytotoxic concentration)” value was 320 µM and the “CC1 (cytotoxic concentration)” value was found to be 320 µM. For the same molecule, in data set [2], the EC100 is 10 µM, the minimal effective concentration was found to be 1 µM, the “CC2 (cytotoxic concentration)” value came to 20 µM and the “CC1 (cytotoxic concentration)” value is 10 µM.
For `Cn1ccc(=O)c(O)c1C(NC1CC1)C(F)(F)F` (centres unmarked) [Apo7074, 2-[1-(cyclopropylamino)-2,2,2-trifluoroethyl]-3-hydroxy-1-methylpyridin-4(1H)-one], in data set [1], the “CC2 (cytotoxic concentration)” value was above 640 µM and the “CC1 (cytotoxic concentration)” value was 20 µM. Besides, in data set [2], the EC100 was found to be 10 µM, the minimal effective concentration came out at 0.1 µM, the “CC2 (cytotoxic concentration)” value came to 20 µM and the “CC1 (cytotoxic concentration)” value turned out to be 10 µM.
As for `C[C@H](NCc1cc(=O)c(O)c(C(O)C(F)(F)F)n1C)C(=O)O` (stereo partly drawn) [Apo7032, N-{[5-hydroxy-1-methyl-4-oxo-6-(2,2,2-trifluoro-1-hydroxyethyl)-1,4-dihydropyridin-2-yl]methyl}-L-alanine], in data set [1], the “CC2 (cytotoxic concentration)” value was above 640 µM and the “CC1 (cytotoxic concentration)” value stood at 10 µM. Besides, in data set [2], the EC100 was found to be 10 µM, the minimal effective concentration amounted to 0.1 µM, the “CC2 (cytotoxic concentration)” value amounted to 40 µM and the “CC1 (cytotoxic concentration)” value came to 80 µM.
With `Cc1cc(=O)c(O)c(CN2CCOCC2)n1CC(F)(F)F` [Apo7434, 3-hydroxy-6-methyl-2-(morpholinomethyl)-1-(2,2,2-trifluoroethyl)pyridin-4(1H)-one], in data set [1], the “CC2 (cytotoxic concentration)” value came out at 320 µM and the “CC1 (cytotoxic concentration)” value was determined as 320 µM. Further, in data set [2], the EC100 came to 20 µM, the minimal effective concentration worked out at 1 µM, the “CC2 (cytotoxic concentration)” value was 40 µM and the “CC1 (cytotoxic concentration)” value was 40 µM.
For the molecule `CNC(=O)[C@H](C)NCc1cc(=O)c(O)c(C(O)C(F)(F)F)n1C` (stereo partly drawn) [Apo7033, N-2-{[5-hydroxy-1-methyl-4-oxo-6-(2,2,2-trifluoro-1-hydroxyethyl)-1,4-dihydropyridin-2-yl]methyl}-N-methyl-L-alaninamide], in data set [1], the “CC2 (cytotoxic concentration)” value was above 640 µM and the “CC1 (cytotoxic concentration)” value worked out at 40 µM.
In the case of `Cc1cc(=O)c(O)c(C(N2CCN(Cc3ccccc3)CC2)C(F)(F)F)n1C` (centres unmarked) [Apo7334, 2-(1-(4-benzylpiperazin-1-yl)-2,2,2-trifluoroethyl)-3-hydroxy-1,6-dimethylpyridin-4(1H)-one], in data set [1], the “CC2 (cytotoxic concentration)” value amounted to 320 µM and the “CC1 (cytotoxic concentration)” value turned out to be 40 µM. Besides, in data set [2], the EC100 is 10 µM, the minimal effective concentration came to 1 µM, the “CC2 (cytotoxic concentration)” value turned out to be 20 µM and the “CC1 (cytotoxic concentration)” value is 10 µM.
For `CN1CCN(C(c2c(O)c(=O)ccn2C)C(F)(F)F)CC1` (centres unmarked) [Apo7073, 3-hydroxy-1-methyl-2-[2,2,2-trifluoro-1-(4-methylpiperazin-1-yl)ethyl]pyridin-4(1H)-one], in data set [1], the “CC2 (cytotoxic concentration)” value was above 640 µM and the “CC1 (cytotoxic concentration)” value was 40 µM. Also, in data set [2], the EC100 came to 10 µM, the minimal effective concentration amounted to 0.1 µM, the “CC2 (cytotoxic concentration)” value turned out to be 20 µM and the “CC1 (cytotoxic concentration)” value was 40 µM.
As for `Cc1cc(=O)c(O)cn1CC(F)(F)F` [Apo6994, 5-hydroxy-2-methyl-1-(2,2,2-trifluoroethyl)pyridin-4(1H)-one], in data set [1], the “CC2 (cytotoxic concentration)” value is 640 µM and the “CC1 (cytotoxic concentration)” value was found to be 160 µM. Besides, in data set [2], the EC100 was determined as 10 µM, the minimal effective concentration amounted to 1 µM, the “CC2 (cytotoxic concentration)” value is above 80 µM and the “CC1 (cytotoxic concentration)” value is above 80 µM.
Regarding `Cc1cc(=O)c(O)c(C(N2CCN(c3ccccc3)CC2)C(F)(F)F)n1C` (centres unmarked) [Apo7335, 3-hydroxy-1,6-dimethyl-2-(2,2,2-trifluoro-1-(4-phenylpiperazin-1-yl)ethyl)pyridin-4(1H)-one], in data set [1], the “CC2 (cytotoxic concentration)” value came out at 80 µM and the “CC1 (cytotoxic concentration)” value is 80 µM. Moreover, in data set [2], the EC100 amounted to 10 µM, the minimal effective concentration came out at 1 µM, the “CC2 (cytotoxic concentration)” value turned out to be 20 µM and the “CC1 (cytotoxic concentration)” value was found to be 20 µM.
As for `CN(C)Cc1cc(=O)c(O)c(CC(F)(F)F)n1C` [Apo7021, 6-[(dimethylamino)methyl]-3-hydroxy-1-methyl-2-(2,2,2-trifluoroethyl)pyridin-4(1H)-one], in data set [1], the “CC2 (cytotoxic concentration)” value was above 640 µM and the “CC1 (cytotoxic concentration)” value was found to be 80 µM. Besides, in data set [2], the EC100 is 10 µM, the minimal effective concentration was found to be 0.1 µM, the “CC2 (cytotoxic concentration)” value worked out at 20 µM and the “CC1 (cytotoxic concentration)” value came out at 10 µM.
With `Cn1cc(Cl)c(=O)c(O)c1C(N1CCCCC1)C(F)(F)F` (centres unmarked) [Apo7061, 5-chloro-3-hydroxy-1-methyl-2-[2,2,2-trifluoro-1-(piperidin-1-yl)ethyl]pyridin-4(1H)-one], in data set [1], the “CC2 (cytotoxic concentration)” value is 10 µM and the “CC1 (cytotoxic concentration)” value was found to be 10 µM. In data set [2], the EC100 was determined as 10 µM, the minimal effective concentration worked out at 1 µM, the “CC2 (cytotoxic concentration)” value turned out to be 20 µM and the “CC1 (cytotoxic concentration)” value came out at 40 µM.
Turning to `Cn1ccc(=O)c(O)c1C(N1CCCCC1)C(F)(F)F` (centres unmarked) [Apo7058, 3-hydroxy-1-methyl-2-[2,2,2-trifluoro-1-(piperidin-1-yl)ethyl]pyridin-4(1H)-one], in data set [1], the “CC2 (cytotoxic concentration)” value was above 640 µM and the “CC1 (cytotoxic concentration)” value stood at 20 µM. In addition, in data set [2], the EC100 came out at 10 µM, the minimal effective concentration is 1 µM, the “CC2 (cytotoxic concentration)” value was 80 µM and the “CC1 (cytotoxic concentration)” value turned out to be 10 µM.
Regarding `Cc1cc(=O)c(O)c(C(N2CCN(c3ccccn3)CC2)C(F)(F)F)n1C` (centres unmarked) [Apo7336, 3-hydroxy-1,6-dimethyl-2-(2,2,2-trifluoro-1-(4-(pyridin-2-yl)piperazin-1-yl)ethyl)pyridin-4(1H)-one], in data set [1], the “CC2 (cytotoxic concentration)” value worked out at 80 µM and the “CC1 (cytotoxic concentration)” value was 80 µM. In data set [2], the EC100 is 10 µM, the minimal effective concentration stood at 1 µM, the “CC2 (cytotoxic concentration)” value amounted to 20 µM and the “CC1 (cytotoxic concentration)” value came out at 10 µM.
On to `CNC(=O)[C@@H](C)NC(c1c(O)c(=O)ccn1C)C(F)(F)F` (stereo partly drawn) [Apo6998, N-methyl-N2-[2,2,2-trifluoro-1-(3-hydroxy-1-methyl-4-oxo-1,4-dihydropyridin-2-yl)ethyl]-D-alaninamide], for which, in data set [1], the “CC2 (cytotoxic concentration)” value turned out to be 100 µM and the “CC1 (cytotoxic concentration)” value amounted to 20 µM.
Taken in the same sequence, the figures for `Cc1c(O)c(=O)c(C(N2CCN(C)CC2)C(F)(F)F)cn1C.Cl` (centres unmarked) [Apo7063, 3-Hydroxy-1,2-dimethyl-5-[2,2,2-trifluoro-1-(4-methylpiperazin-1-yl)ethyl]pyridin-4(1H)-one hydrochloride] were above 640 µM and 320 µM.
Taken in the same sequence, the figures for `Cc1c(Cl)c(=O)c(O)c(C(O)C(F)(F)F)n1C` (centres unmarked) [Apo7038, 3-chloro-5-hydroxy-1,2-dimethyl-6-(2,2,2-trifluoro-1-hydroxyethyl)pyridin-4(1H)-one] were above 640 µM and 40 µM.
